Experimental data: patent US8574607B2, “Spiroheterocyclic thiofuran dione derivatives” (Syngenta Crop Protection, Inc., priority 2009, dated 2013)
Where two headings read alike, the source gives them in different places.

Legend:
[1] = system: Myzus persicae (Green Peach Aphid); conditions: 144 h, read-out: activity (mortality)
[2] = system: Myzus persicae (Green Peach Aphid); test: Example B11: Myzus persicae, mixed population, feeding/residual contact activity (sprayed pepper plants); assay type: in vivo; conditions: 144 h, spray chamber, 6 days after treatment, read-out: activity against Myzus persicae (mortality)
[3] = system: Myzus persicae (Green Peach Aphid); test: Example B1: Myzus persicae, mixed population, feeding/residual contact activity, preventive (sprayed sunflower leaf discs); conditions: foliar, 144 h, read-out: activity (mortality)
[4] = system: Tetranychus urticae (Two-Spotted Spider Mite); conditions: foliar, 192 h, read-out: activity (egg, larval and adult mortality)
[5] = system: Aphis craccivora (Cowpea Aphid); test: Example B8: Aphis craccivora, mixed population, systemic/feeding (roots of pea seedlings in test solution); assay type: in vivo; conditions: 144 h, read-out: activity (mortality)
Description: (§1) Activity Against Aphis craccivora (Cowpea Aphid)
(Mixed Population, Systemic/Feeding)
6 days later, samples are checked for mortality.

[6] = system: Nilaparvata lugens (Brown Rice Planthopper); test: Example B6: Nilaparvata lugens, larvicide, feeding/contact (rice seedlings); conditions: in Oryza sativa, read-out: activity (mortality, growth regulation, effects on F1 generation)
[7] = system: Myzus persicae (Green Peach Aphid); test: Example B10: drench activity against Myzus persicae (pea seedlings in field soil); conditions: 168 h, read-out: drench activity (mortality)
[8] = system: Thrips tabaci (Onion Thrips); conditions: foliar, 144 h, read-out: activity (mortality)
[9] = system: Aphis craccivora (Cowpea Aphid); test: whole plant or invertebrate; assay type: in vivo; conditions: 144 h, read-out: activity (mortality)
Description: as §1
(Mixed Population, Contact/Feeding)
6 days after treatment, samples are checked for mortality.

[10] = system: Aphis craccivora (Cowpea Aphid); test: whole plant or invertebrate; conditions: in Phaseolus vulgaris, 120 h, read-out: translaminar activity (mortality)

SMILES	mortality at 400 ppm [1] [%]	mortality at 400 ppm [3] [%]	mortality at 400 ppm [4] [%]	further results
CCOC(=O)OC1=C(c2cc(C)ccc2C)C(=O)OC12CCN(OC)CC2 [P1.1, Carbonic acid 3-(2,5-dimethyl-phenyl)-8-methoxy-2-oxo-1-oxa-8-aza-spiro[4.5]dec-3-en-4-yl ester ethyl ester]	> 80	–	–	mortality at 200 ppm [2]: ≥ 80%
CON1CCC2(CC1)OC(=O)C(c1cc(C)ccc1C)=C2OC(=O)C(C)(C)C [P1.2]	> 80	> 80	–	–
CCOC(=O)OC1=C(c2cc(C)c(C)cc2C)C(=O)OC12CCN(OC)CC2 [P1.3]	> 80	> 80	–	mortality at 200 ppm [2]: ≥ 80%
CON1CCC2(CC1)OC(=O)C(c1cc(C)c(C)cc1C)=C2OC(=O)C(C)(C)C [P1.4]	> 80	> 80	–	mortality at 200 ppm [2]: ≥ 80%
CCOC(=O)OC1=C(c2c(C)cc(C)cc2C)C(=O)OC12CCN(OC)CC2 [P1.5, Carbonic acid ethyl ester 8-methoxy-2-oxo-3-(2,4,6-trimethylphenyl)-1-oxa-8-aza-spiro[4.5]dec-3-en-4-yl ester]	> 80	> 80	–	–
CON1CCC2(CC1)OC(=O)C(c1c(C)cc(C)cc1C)=C2OC(=O)C(C)(C)C [P1.6]	> 80	> 80	–	mortality at 200 ppm [2]: ≥ 80%
CCOC(=O)OC1=C(c2c(C)cc(C)cc2C)C(=O)SC12CCN(OC)CC2 [P1.7, Carbonic acid ethyl ester 8-methoxy-2-oxo-3-(2,4,6-trimethylphenyl)-1-thia-8-aza-spiro[4.5]dec-3-en-4-yl ester]	–	> 80	–	–
CCOC(=O)OC1=C(c2c(C)cc(Br)cc2C)C(=O)OC12CCN(OC)CC2 [P1.8]	> 80	–	–	–
CON1CCC2(CC1)OC(=O)C(c1c(C)cc(C)cc1C)=C2OC(=O)CC(C)(C)C [P1.9]	> 80	> 80	–	–
CCC(C)(C)C(=O)OC1=C(c2c(C)cc(C)cc2C)C(=O)OC12CCN(OC)CC2 [P1.10]	> 80	> 80	> 80	–
CCOC(=O)OC1=C(c2c(C)cc(Cl)cc2C)C(=O)OC12CCN(OC)CC2 [P1.11]	> 80	> 80	> 80	mortality at 25 ppm ([5]; 25 ppm, roots in test solution, 6 days): > 80%; mortality at 400 ppm [6]: > 80%; mortality at 200 ppm [2]: ≥ 80%; mortality at 25 ppm [7]: > 80%
C=Cc1cc(C)c(C2=C(OC(=O)OCC)C3(CCN(OC)CC3)OC2=O)c(C)c1 [P1.12]	> 80	–	–	–
CCOC(=O)OC1=C(c2ccc(C)cc2C)C(=O)OC12CCN(OC)CC2 [P1.13]	> 80	> 80	–	mortality at 400 ppm [8]: > 80%; mortality at 200 ppm [2]: ≥ 80%
CCOC(=O)OC1=C(c2ccc(Cl)cc2Cl)C(=O)OC12CCN(OC)CC2 [P1.14]	> 80	> 80	–	–
CCOC(=O)OC1=C(c2c(C)ccc(Cl)c2C)C(=O)OC12CCN(OC)CC2 [P1.15]	–	–	> 80	–
CCOC(=O)OC1=C(c2cc(C)ccc2OC)C(=O)OC12CCN(OC)CC2 [P1.16]	–	–	–	melting point: 81 to 83 °C
CCOC(=O)OC1=C(c2c(C)cc(C)cc2C)C(=O)OC12CCN(OCC)CC2 [P1.17]	> 80	> 80	> 80	mortality at 400 ppm [8]: > 80%
CCOC(=O)OC1=C(c2c(C)cc(C)c(Cl)c2C)C(=O)OC12CCN(OC)CC2 [P1.18]	> 80	–	–	–
CCOC(=O)OC1=C(c2c(C)cc(C)cc2C)C(=O)OC12CCN(OCCOC)CC2 [P1.19]	> 80	–	> 80	–
CCOC(=O)OC1=C(c2c(F)ccc(Br)c2Cl)C(=O)OC12CCN(OC)CC2 [P1.29]	–	–	> 80	–
CCOC(=O)OC1=C(c2c(Cl)cc(Br)cc2Cl)C(=O)OC12CCN(OC)CC2 [P1.30]	–	–	–	melting point: 122 to 125 °C
CCOC(=O)OC1=C(c2cc(C)c(Cl)cc2C)C(=O)OC12CCN(OC)CC2 [P1.33]	> 80	–	–	–
CCOC(=O)OC1=C(c2c(C)cc(C)cc2C2CC2)C(=O)OC12CCN(OC)CC2 [P1.34]	> 80	–	> 80	–
CCOC(=O)OC1=C(c2c(C)cc(C)c(Br)c2C)C(=O)OC12CCN(OC)CC2 [P1.39]	–	–	–	melting point: 52 to 54 °C

SMILES	mortality at 400 ppm [1] [%]	mortality at 400 ppm [3] [%]	mortality at 400 ppm [4] [%]	further results
CCOC(=O)OC1=C(c2c(C)cccc2C)C(=O)OC12CCN(OC)CC2 [P1.40]	–	–	–	melting point: 93 to 94 °C
CON1CCC2(CC1)OC(=O)C(c1cc(C)ccc1C)=C2O [P2.1, 3-(2,5-dimethyl-phenyl)-4-hydroxy-8-methoxy-1-oxa-8-aza-spiro[4.5]dec-3-en-2-one]	> 80	> 80	–	mortality at 200 ppm [2]: ≥ 80%
CON1CCC2(CC1)OC(=O)C(c1cc(C)c(C)cc1C)=C2O [P2.2, 4-Hydroxy-8-methoxy-3-(2,4,5-trimethyl-phenyl)-1-oxa-8-aza-spiro[4.5]dec-3-en-2-one]	> 80	> 80	–	mortality at 400 ppm [8]: > 80%; mortality at 200 ppm [2]: ≥ 80%
CON1CCC2(CC1)OC(=O)C(c1c(C)cc(C)cc1C)=C2O [P2.3, 4-hydroxy-8-methoxy-3-(2,4,6-trimethyl-phenyl)-1-oxa-8-aza-spiro[4.5]dec-3-en-2-one]	> 80	> 80	> 80	mortality at 25 ppm [5]: > 80%; mortality at 400 ppm [6]: > 80%; mortality at 25 ppm [7]: > 80%; mortality at 400 ppm [9]: > 80%; mortality at 400 ppm [10]: > 80%
CON1CCC2(CC1)SC(=O)C(c1c(C)cc(C)cc1C)=C2O [P2.4, 4-hydroxy-8-methoxy-3-(2,4,6-trimethyl-phenyl)-1-thia-8-aza-spiro[4.5]dec-3-en-2-one]	–	> 80	> 80	–
CON1CCC2(CC1)OC(=O)C(c1c(C)cc(Br)cc1C)=C2O [P2.5]	> 80	> 80	–	–
CON1CCC2(CC1)OC(=O)C(c1c(C)cc(Cl)cc1C)=C2O [P2.6]	–	> 80	> 80	–
C=Cc1cc(C)c(C2=C(O)C3(CCN(OC)CC3)OC2=O)c(C)c1 [P2.7]	> 80	> 80	–	–
CON1CCC2(CC1)OC(=O)C(c1ccc(C)cc1C)=C2O [P2.8]	> 80	> 80	–	mortality at 200 ppm [2]: ≥ 80%
CON1CCC2(CC1)OC(=O)C(c1ccc(Cl)cc1Cl)=C2O [P2.9]	–	–	> 80	–
CCON1CCC2(CC1)OC(=O)C(c1c(C)cc(C)cc1C)=C2O [P2.12]	> 80	> 80	> 80	mortality at 400 ppm [8]: > 80%
CON1CCC2(CC1)OC(=O)C(c1c(C)cc(C)c(Cl)c1C)=C2O [P2.13]	> 80	–	> 80	–
COCCON1CCC2(CC1)OC(=O)C(c1c(C)cc(C)cc1C)=C2O [P2.14]	–	–	> 80	mortality at 400 ppm [8]: > 80%
CON1CCC2(CC1)OC(=O)C(c1ccc(F)cc1)=C2O [P2.20]	–	–	> 80	–
COc1ccccc1C1=C(O)C2(CCN(OC)CC2)OC1=O [P2.34]	–	> 80	–	–
CON1CCC2(CC1)OC(=O)C(c1ccc(Cl)cc1)=C2O [P2.35]	–	–	> 80	–
COc1c(Cl)cccc1C1=C(O)C2(CCN(OC)CC2)OC1=O [P2.37]	–	> 80	–	–
CON1CCC2(CC1)OC(=O)C(c1c(Br)cc(C)cc1Br)=C2O [P2.40]	–	–	> 80	–
CON1CCC2(CC1)OC(=O)C(c1c(C)cc(Br)cc1Cl)=C2O [P2.47]	–	–	–	mortality at 200 ppm [2]: ≥ 80%
CON1CCC2(CC1)OC(=O)C(c1cc(C)c(Cl)cc1C)=C2O [P2.48]	–	–	–	mortality at 200 ppm [2]: ≥ 80%
CON1CCC2(CC1)OC(=O)C(c1c(C)cc(C)cc1C1CC1)=C2O [P2.49]	> 80	> 80	> 80	–
C=Cc1cc(C)cc(C)c1C1=C(O)C2(CCN(OC)CC2)OC1=O [P2.50]	> 80	> 80	–	–
CCc1cc(C)cc(C)c1C1=C(O)C2(CCN(OC)CC2)OC1=O [P2.51]	> 80	> 80	> 80	–
